Results reported in patent US8969516B2, “Method of hydrolysis of peptide bond” (priority 2006, dated 2015).

Assay: MALDI-TOF screening of Ni^2+ dependent hydrolysis in a combinatorial peptide library
Type: physicochemical
Conditions: CH3CO-Gly-Ala-Thr-X-His-Z-Lys-Phe-Leu-NH2 library, Ni^2+ 2 mM, pH 8.2, 10 mM Tris, score=24/tm
Summary of the method: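 Sublibraries of Ac-Gly-Ala-Ser/Thr-X-His-Z-Lys-Phe-Leu-NH2, randomized at Z and fixed at X, were hydrolyzed at 1 mM total peptide with 2 mM Ni2+ in 10 mM Tris, pH 8.2, at 37 °C or 45 °C. Cleavage was scored visually in MALDI-TOF spectra at 2, 4, 6 and 8 h.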

| Substance | hydrolysis score from MALDI-TOF screening (37° C.) | hydrolysis score from MALDI-TOF screening (45° C.) |
| --- | --- | --- |
| Ac-GATIHTKFL-NH2 [TIHT] | 0 (a score of 0 if no trace of the product of hydrolysis was seen after 8 hours of incubation) | 0 (a score of 0 if no trace of the product of hydrolysis was seen after 8 hours of incubation) |
| Ac-GATIHWKFL-NH2 [TIHW] | 3 (a score of 3 for detection at 8 hours) | 3 (a score of 3 for detection at 8 hours) |
| Ac-GATIHYKFL-NH2 [TIHY] | 0 (a score of 0 if no trace of the product of hydrolysis was seen after 8 hours of incubation) | 0 (a score of 0 if no trace of the product of hydrolysis was seen after 8 hours of incubation) |
| Ac-GATKHAKFL-NH2 [TKHA] | 0 (a score of 0 if no trace of the product of hydrolysis was seen after 8 hours of incubation) | 3 (a score of 3 for detection at 8 hours) |
| Ac-GATKHDKFL-NH2 [TKHD] | 0 (a score of 0 if no trace of the product of hydrolysis was seen after 8 hours of incubation) | 0 (a score of 0 if no trace of the product of hydrolysis was seen after 8 hours of incubation) |
| Ac-GATKHEKFL-NH2 [TKHE] | 0 (a score of 0 if no trace of the product of hydrolysis was seen after 8 hours of incubation) | 0 (a score of 0 if no trace of the product of hydrolysis was seen after 8 hours of incubation) |
| Ac-GATKHFKFL-NH2 [TKHF] | 3 (a score of 3 for detection at 8 hours) | 6 (a score of 6 for detection at 4 hours) |
| Ac-GATKHGKFL-NH2 [TKHG] | 0 (a score of 0 if no trace of the product of hydrolysis was seen after 8 hours of incubation) | 0 (a score of 0 if no trace of the product of hydrolysis was seen after 8 hours of incubation) |
| Ac-GATKHHKFL-NH2 [TKHH] | 0 (a score of 0 if no trace of the product of hydrolysis was seen after 8 hours of incubation) | 4 (a score of 4 for detection at 6 hours) |
| Ac-GATKHIKFL-NH2 [TKHI] | 4 (a score of 4 for detection at 6 hours) | 12 (a score of 12, if it was seen to be partially hydrolysed at 2 hours) |
| Ac-GATKHKKFL-NH2 [TKHK] | 3 (a score of 3 for detection at 8 hours) | 12 (a score of 12, if it was seen to be partially hydrolysed at 2 hours) |
| Ac-GATKHLKFL-NH2 [TKHL] | 4 (a score of 4 for detection at 6 hours) | 12 (a score of 12, if it was seen to be partially hydrolysed at 2 hours) |
| Ac-GATKHMKFL-NH2 [TKHM] | 3 (a score of 3 for detection at 8 hours) | 4 (a score of 4 for detection at 6 hours) |
| Ac-GATKHNKFL-NH2 [TKHN] | 0 (a score of 0 if no trace of the product of hydrolysis was seen after 8 hours of incubation) | 0 (a score of 0 if no trace of the product of hydrolysis was seen after 8 hours of incubation) |
| Ac-GATKHPKFL-NH2 [TKHP] | 0 (a score of 0 if no trace of the product of hydrolysis was seen after 8 hours of incubation) | 0 (a score of 0 if no trace of the product of hydrolysis was seen after 8 hours of incubation) |
| Ac-GATKHQKFL-NH2 [TKHQ] | 0 (a score of 0 if no trace of the product of hydrolysis was seen after 8 hours of incubation) | 0 (a score of 0 if no trace of the product of hydrolysis was seen after 8 hours of incubation) |
| Ac-GATKHRKFL-NH2 [TKHR] | 4 (a score of 4 for detection at 6 hours) | 12 (a score of 12, if it was seen to be partially hydrolysed at 2 hours) |
| Ac-GATKHSKFL-NH2 [TKHS] | 0 (a score of 0 if no trace of the product of hydrolysis was seen after 8 hours of incubation) | 0 (a score of 0 if no trace of the product of hydrolysis was seen after 8 hours of incubation) |
| Ac-GATKHTKFL-NH2 [TKHT] | 0 (a score of 0 if no trace of the product of hydrolysis was seen after 8 hours of incubation) | 0 (a score of 0 if no trace of the product of hydrolysis was seen after 8 hours of incubation) |
| Ac-GATKHVKFL-NH2 [TKHV] | 3 (a score of 3 for detection at 8 hours) | 6 (a score of 6 for detection at 4 hours) |

| Substance | hydrolysis score from MALDI-TOF screening (37° C.) | hydrolysis score from MALDI-TOF screening (45° C.) |
| --- | --- | --- |
| Ac-GATKHWKFL-NH2 [TKHW] | 6 (a score of 6 for detection at 4 hours) | 12 (a score of 12, if it was seen to be partially hydrolysed at 2 hours) |
| Ac-GATKHYKFL-NH2 [TKHY] | 3 (a score of 3 for detection at 8 hours) | 6 (a score of 6 for detection at 4 hours) |
| Ac-GATLHAKFL-NH2 [TLHA] | 0 (a score of 0 if no trace of the product of hydrolysis was seen after 8 hours of incubation) | 0 (a score of 0 if no trace of the product of hydrolysis was seen after 8 hours of incubation) |
| Ac-GATLHDKFL-NH2 [TLHD] | 0 (a score of 0 if no trace of the product of hydrolysis was seen after 8 hours of incubation) | 0 (a score of 0 if no trace of the product of hydrolysis was seen after 8 hours of incubation) |
| Ac-GATLHEKFL-NH2 [TLHE] | 0 (a score of 0 if no trace of the product of hydrolysis was seen after 8 hours of incubation) | 0 (a score of 0 if no trace of the product of hydrolysis was seen after 8 hours of incubation) |
| Ac-GATLHFKFL-NH2 [TLHF] | 0 (a score of 0 if no trace of the product of hydrolysis was seen after 8 hours of incubation) | 0 (a score of 0 if no trace of the product of hydrolysis was seen after 8 hours of incubation) |
| Ac-GATLHGKFL-NH2 [TLHG] | 0 (a score of 0 if no trace of the product of hydrolysis was seen after 8 hours of incubation) | 0 (a score of 0 if no trace of the product of hydrolysis was seen after 8 hours of incubation) |
| Ac-GATLHHKFL-NH2 [TLHH] | 0 (a score of 0 if no trace of the product of hydrolysis was seen after 8 hours of incubation) | 0 (a score of 0 if no trace of the product of hydrolysis was seen after 8 hours of incubation) |
| Ac-GATLHIKFL-NH2 [TLHI] | 0 (a score of 0 if no trace of the product of hydrolysis was seen after 8 hours of incubation) | 0 (a score of 0 if no trace of the product of hydrolysis was seen after 8 hours of incubation) |
| Ac-GATLHKKFL-NH2 [TLHK] | 0 (a score of 0 if no trace of the product of hydrolysis was seen after 8 hours of incubation) | 3 (a score of 3 for detection at 8 hours) |
| Ac-GATLHLKFL-NH2 [TLHL] | 0 (a score of 0 if no trace of the product of hydrolysis was seen after 8 hours of incubation) | 0 (a score of 0 if no trace of the product of hydrolysis was seen after 8 hours of incubation) |
| Ac-GATLHMKFL-NH2 [TLHM] | 0 (a score of 0 if no trace of the product of hydrolysis was seen after 8 hours of incubation) | 0 (a score of 0 if no trace of the product of hydrolysis was seen after 8 hours of incubation) |
| Ac-GATLHNKFL-NH2 [TLHN] | 0 (a score of 0 if no trace of the product of hydrolysis was seen after 8 hours of incubation) | 0 (a score of 0 if no trace of the product of hydrolysis was seen after 8 hours of incubation) |
| Ac-GATLHPKFL-NH2 [TLHP] | 0 (a score of 0 if no trace of the product of hydrolysis was seen after 8 hours of incubation) | 0 (a score of 0 if no trace of the product of hydrolysis was seen after 8 hours of incubation) |
| Ac-GATLHQKFL-NH2 [TLHQ] | 0 (a score of 0 if no trace of the product of hydrolysis was seen after 8 hours of incubation) | 0 (a score of 0 if no trace of the product of hydrolysis was seen after 8 hours of incubation) |
| Ac-GATLHRKFL-NH2 [TLHR] | 0 (a score of 0 if no trace of the product of hydrolysis was seen after 8 hours of incubation) | 3 (a score of 3 for detection at 8 hours) |
| Ac-GATLHSKFL-NH2 [TLHS] | 0 (a score of 0 if no trace of the product of hydrolysis was seen after 8 hours of incubation) | 0 (a score of 0 if no trace of the product of hydrolysis was seen after 8 hours of incubation) |
| Ac-GATLHTKFL-NH2 [TLHT] | 0 (a score of 0 if no trace of the product of hydrolysis was seen after 8 hours of incubation) | 0 (a score of 0 if no trace of the product of hydrolysis was seen after 8 hours of incubation) |
| Ac-GATLHVKFL-NH2 [TLHV] | 0 (a score of 0 if no trace of the product of hydrolysis was seen after 8 hours of incubation) | 0 (a score of 0 if no trace of the product of hydrolysis was seen after 8 hours of incubation) |
| Ac-GATLHWKFL-NH2 [TLHW] | 3 (a score of 3 for detection at 8 hours) | 3 (a score of 3 for detection at 8 hours) |
